Data reported in patent US20040048790A1, “Inducing cellular immune responses to p53 using peptide and nucleic acid compositions” (priority 1999, published 2004).
No end group written: not given here.

Assays:
[1] = target: DRB1*0301 (DR3) (Homo sapiens, UniProt P01903+P01911, A100K/A102G/A103R/A169T/F55Y/I96L/K41T/L162R/M171V/P40S/Q125H/Q178H/Q39Y/R42S/S66N/T106N/T262R/W38E/Y61H); assay type: binding
[2] = target: B*5401 (Homo sapiens, UniProt P01889, A329T/C349S/D138N/D201E/E176V/E187T/E204Q/E69G/I76V/K202T/L119W/R155S/R180L/S121T/S35A/S48A/V127L/V306I/V36M/Y140L); assay: biochemical
[3] = target: HLA-B*0702 (Homo sapiens, UniProt P01889); assay: biochemical
[4] = target: B*5301 (Homo sapiens, UniProt P01889, A329T/A93T/A95T/C349S/D201E/D98Y/E176V/E187L/E204Q/E69T/G107R/I218V/K202T/L105A/L119I/N104I/Q94N/R106L/R155S/R180L/S101N/S121R/S35A/S48A/T118I/V127L/V306I/V36M/Y140S/Y91F); assay: biochemical
[5] = target: B*3501 (Homo sapiens, UniProt P01889, A329T/A93T/A95T/C349S/D201E/D98Y/E176V/E187L/E204Q/E69T/I218V/K202T/L119I/Q94N/R155S/R180L/S121R/S35A/S48A/T118I/V127L/V306I/V36M/Y140S/Y91F); assay: biochemical

Chain of DRB1*0301 (DR3) (P01903 26-254 limits assumed, other chains not shown): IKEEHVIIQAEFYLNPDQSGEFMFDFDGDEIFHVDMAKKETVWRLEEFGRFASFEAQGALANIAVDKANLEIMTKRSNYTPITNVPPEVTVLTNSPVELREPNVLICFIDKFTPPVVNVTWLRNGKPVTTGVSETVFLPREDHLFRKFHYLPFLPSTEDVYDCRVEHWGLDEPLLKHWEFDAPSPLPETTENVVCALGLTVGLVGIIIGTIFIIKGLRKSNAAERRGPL

Molecule	IC50 [1]	IC50 [2]	IC50 [3]	IC50 [4]	IC50 [5]
CC(C)C[C@H](NC(=O)[C@H](CCCCN)NC(=O)[C@H](Cc1c[nH]c2ccccc12)NC(=O)[C@@H](N)CC(C)C)C(=O)N[C@@H](CC(C)C)C(=O)N1CCC[C@H]1C(=O)N[C@@H](CCC(=O)O)C(=O)N[C@@H](CC(N)=O)C(=O)N[C@@H](CC(N)=O)C(=O)N[C@H](C(=O)N[C@@H](CC(C)C)C(=O)N[C@@H](CO)C(=O)N1CCC[C@H]1C(=O)N[C@@H](CC(C)C)C(=O)N1CCC[C@H]1C(=O)O)C(C)C	> 10000 nM				
CC[C@H](C)[C@H](NC(=O)[C@H](C)NC(=O)[C@@H]1CCCN1C(=O)[C@H](C)NC(=O)[C@@H]1CCCN1C(=O)[C@H](C)NC(=O)[C@@H](NC(=O)[C@@H]1CCCN1C(=O)[C@@H]1CCCN1C(=O)[C@@H](N)Cc1ccccc1)C(C)C)C(=O)O [p53.70.F1110]		63 nM	290 nM	2910 nM	
CC[C@H](C)[C@H](NC(=O)[C@H](CO)NC(=O)[C@@H]1CCCN1C(=O)[C@H](C)NC(=O)[C@@H]1CCCN1C(=O)[C@H](C)NC(=O)[C@@H]1CCCN1C(=O)[C@@H](N)Cc1ccccc1)C(=O)O [p53.84.F118]		6.7 nM		131 nM	327 nM
CC[C@H](C)[C@H](NC(=O)[C@@H](NC(=O)[C@@H](N)CC(C)C)[C@@H](C)O)C(=O)N[C@H](C(=O)N[C@H](C(=O)N[C@@H](CC(C)C)C(=O)N[C@@H](CCC(=O)O)C(=O)N[C@@H](CC(=O)O)C(=O)N[C@@H](CO)C(=O)N[C@@H](CO)C(=O)NCC(=O)N[C@@H](CC(N)=O)C(=O)N[C@@H](CC(C)C)C(=O)N[C@@H](CC(C)C)C(=O)NCC(=O)O)[C@@H](C)O)[C@@H](C)CC	> 10000 nM				
FPAPSWPI [p53.86.F118]		1.6 nM	120 nM	3.3 nM	4.8 nM
CC(C)C[C@H](NC(=O)[C@@H]1CCCN1C(=O)[C@H](Cc1c[nH]c2ccccc12)NC(=O)[C@H](CO)NC(=O)[C@@H]1CCCN1C(=O)[C@H](C)NC(=O)[C@@H]1CCCN1C(=O)[C@H](C)NC(=O)[C@@H]1CCCN1C(=O)[C@@H](N)Cc1ccccc1)C(=O)O [p53.84.F1]		1.7 nM			5.1 nM
CC[C@H](C)[C@H](NC(=O)[C@@H]1CCCN1C(=O)[C@@H]1CCCN1C(=O)[C@H](C)NC(=O)[C@H](C)NC(=O)[C@H](CCC(=O)O)NC(=O)[C@@H]1CCCN1C(=O)[C@H](CCSC)NC(=O)[C@H](CCCNC(=N)N)NC(=O)[C@@H]1CCCN1C(=O)[C@@H](N)Cc1ccccc1)C(=O)O [p53.63.F1111]		2.9 nM		5470 nM	5540 nM
CC[C@H](C)[C@H](NC(=O)[C@H](CC(=O)O)NC(=O)[C@H](CC(=O)O)NC(=O)[C@@H]1CCCN1C(=O)[C@H](CO)NC(=O)[C@H](CC(C)C)NC(=O)[C@H](CCSC)NC(=O)[C@H](CC(C)C)NC(=O)[C@@H](N)CC(=O)O)C(=O)N[C@@H](CCC(=O)O)C(=O)N[C@@H](CCC(N)=O)C(=O)N[C@@H](Cc1c[nH]c2ccccc12)C(=O)N[C@@H](Cc1ccccc1)C(=O)N[C@H](C(=O)N[C@@H](CCC(=O)O)C(=O)O)[C@@H](C)O	> 10000 nM				
FPAAPTPAI [p53.76.F119]		2.5 nM	2.6 nM	7.2 nM	12 nM
CC(C)C[C@H](NC(=O)[C@H](CCCCN)NC(=O)[C@H](Cc1c[nH]c2ccccc12)NC(=O)[C@H](CC(C)C)NC(=O)[C@H](CC(=O)O)NC(=O)[C@H](CO)NC(=O)[C@H](Cc1ccccc1)NC(=O)[C@@H](NC(=O)[C@H](CCC(=O)O)NC(=O)[C@H](CCC(N)=O)NC(=O)[C@H](CO)NC(=O)[C@H](CC(C)C)NC(=O)[C@@H]1CCCN1C(=O)[C@@H]1CCCN1C(=O)[C@@H](N)CCC(=O)O)[C@@H](C)O)C(=O)O	> 10000 nM				
CC[C@H](C)[C@H](NC(=O)[C@@H]1CCCN1C(=O)[C@H](Cc1c[nH]c2ccccc12)NC(=O)[C@H](CO)NC(=O)[C@@H]1CCCN1C(=O)[C@H](C)NC(=O)[C@@H]1CCCN1C(=O)[C@H](C)NC(=O)[C@@H]1CCCN1C(=O)[C@@H](N)Cc1ccccc1)C(=O)O [p53.84.F1110]		1.2 nM	13 nM	42 nM	
CC[C@H](C)[C@H](NC(=O)[C@@H]1CCCN1C(=O)[C@H](C)NC(=O)[C@H](C)NC(=O)[C@@H]1CCCN1C(=O)[C@@H](NC(=O)[C@@H]1CCCN1C(=O)[C@@H](N)Cc1ccccc1)[C@@H](C)O)C(=O)O [p53.79.F118]		7.7 nM	90 nM	6200 nM	5140 nM
CC[C@H](C)[C@H](NC(=O)[C@@H]1CCCN1C(=O)[C@@H](NC(=O)[C@@H]1CCCN1C(=O)[C@H](C)NC(=O)[C@H](C)NC(=O)[C@@H]1CCCN1C(=O)[C@@H](N)Cc1ccccc1)[C@@H](C)O)C(=O)O [p53.76.F118]		3.1 nM	128 nM		655 nM
CC(C)C[C@H](NC(=O)[C@@H]1CCCN1C(=O)[C@H](Cc1c[nH]c2ccccc12)NC(=O)[C@H](CO)NC(=O)[C@@H]1CCCN1C(=O)[C@@H](N)Cc1ccccc1)C(=O)N[C@@H](CO)C(=O)N[C@@H](CO)C(=O)N[C@@H](CO)C(=O)N[C@H](C(=O)O)C(C)C [p53.88.F1]		0.3 nM	3.2 nM	93 nM	72 nM
CC[C@H](C)[C@H](NC(=O)[C@@H]1CCCN1C(=O)[C@H](C)NC(=O)[C@H](C)NC(=O)[C@@H]1CCCN1C(=O)[C@@H](NC(=O)[C@@H]1CCCN1C(=O)[C@H](C)NC(=O)[C@H](C)NC(=O)[C@@H]1CCCN1C(=O)[C@@H](N)Cc1ccccc1)[C@@H](C)O)C(=O)O [p53.76.F1111]		15 nM		3210 nM	
FPILTIITL [p53.249.F1]		5 nM	6.5 nM	7.2 nM	8 nM
CC[C@H](C)[C@H](NC(=O)[C@@H]1CCCN1C(=O)[C@@H](NC(=O)[C@@H]1CCCN1C(=O)[C@H](C)NC(=O)[C@H](C)NC(=O)[C@@H]1CCCN1C(=O)[C@H](C)NC(=O)[C@@H]1CCCN1C(=O)[C@@H](N)Cc1ccccc1)[C@@H](C)O)C(=O)O [p53.74.F1110]		5.3 nM	1.5 nM	127 nM	277 nM
CC[C@H](C)[C@H](NC(=O)[C@@H](NC(=O)[C@@H](NC(=O)[C@@H](NC(=O)[C@@H](NC(=O)[C@H](CC(C)C)NC(=O)[C@@H](NC(=O)[C@@H]1CCCN1C(=O)[C@@H](N)Cc1ccccc1)[C@@H](C)CC)[C@@H](C)O)[C@@H](C)CC)[C@@H](C)CC)[C@@H](C)O)C(=O)O [p53.249.F119]		1.8 nM	74 nM	4 nM	36 nM
CC[C@H](C)[C@H](NC(=O)[C@H](CO)NC(=O)[C@H](CO)NC(=O)[C@H](CO)NC(=O)[C@H](CC(C)C)NC(=O)[C@@H]1CCCN1C(=O)[C@H](Cc1c[nH]c2ccccc12)NC(=O)[C@H](CO)NC(=O)[C@@H]1CCCN1C(=O)[C@@H](N)Cc1ccccc1)C(=O)O [p53.88.F1110]		2.4 nM	5.5 nM	8.5 nM	100 nM
CC(C)C[C@H](NC(=O)[C@@H]1CCCN1C(=O)[C@H](Cc1c[nH]c2ccccc12)NC(=O)[C@H](CO)NC(=O)[C@@H]1CCCN1C(=O)[C@H](C)NC(=O)[C@@H]1CCCN1C(=O)[C@@H](N)Cc1ccccc1)C(=O)O [p53.86.F1]		9.1 nM	10 nM	4 nM	3.1 nM
CC[C@H](C)[C@H](NC(=O)[C@H](C)NC(=O)[C@H](CCC(N)=O)NC(=O)[C@H](CO)NC(=O)[C@@H]1CCCN1C(=O)[C@H](CC(C)C)NC(=O)[C@@H]1CCCN1C(=O)[C@@H](N)Cc1ccccc1)C(=O)O [p53.33.F1]		83 nM			720 nM
